Measured values reported in PubChem BioAssay (NCI).
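At the GI50, growth is halved. TGI: total growth inhibition.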

Key:
Assay in all cases: DTP human tumour cell line panel, 384-well format
BT-549 breast = system: BT-549 breast
COLO 205 colon = system: COLO 205 colon
HCT-116 colon = system: HCT-116 colon
M14 melanoma = system: M14 melanoma
MCF7 breast = system: MCF7 breast
MDA-MB-435 melanoma = system: MDA-MB-435 melanoma
OVCAR-4 ovarian = system: OVCAR-4 ovarian
PC-3 prostate = system: PC-3 prostate
RPMI-8226 leukemia = system: RPMI-8226 leukemia
SF-268 CNS = system: SF-268 CNS
SW-620 colon = system: SW-620 colon
T-47D breast = system: T-47D breast
UO-31 renal = system: UO-31 renal

Compound: COC(=O)c1ccc([C@H]2c3[nH]c4ccccc4c3C[C@H](C(=O)OC)N2C(=O)CCl)cc1
- GI50 (BT-549 breast): 120 nM
- TGI (BT-549 breast): 246 nM
- GI50 (COLO 205 colon): 238 nM
- TGI (COLO 205 colon): 1150 nM
- GI50 (HCT-116 colon): 366 nM
- TGI (HCT-116 colon): 1450 nM
- GI50 (M14 melanoma): 51.2 nM
- TGI (M14 melanoma): 216 nM
- GI50 (MCF7 breast): 553 nM
- TGI (MCF7 breast): 1830 nM
- GI50 (MDA-MB-435 melanoma): 346 nM
- TGI (MDA-MB-435 melanoma): 1570 nM
- GI50 (OVCAR-4 ovarian): < 10 nM
- TGI (OVCAR-4 ovarian): < 10 nM
- GI50 (PC-3 prostate): 34.4 nM
- TGI (PC-3 prostate): 140 nM
- GI50 (RPMI-8226 leukemia): 14.2 nM
- TGI (RPMI-8226 leukemia): 28.4 nM
- GI50 (SF-268 CNS): 19.5 nM
- TGI (SF-268 CNS): 42.3 nM
- GI50 (SW-620 colon): 199 nM
- TGI (SW-620 colon): 504 nM
- GI50 (T-47D breast): 58.2 nM
- TGI (T-47D breast): 764 nM
- GI50 (UO-31 renal): < 10 nM
- TGI (UO-31 renal): < 10 nM
